Results reported in PubChem BioAssay AID1963853 (Molecular Pharmacology Branch, DTP, NCI, 2024).

System: 266295-075-R-J1-PDC spheroid viability
Test: Anticancer human tumor 266295-075-R-J1-PDC patient-derived head and neck squamous carcinoma cell line growth inhibition [POLQ]
Conditions: spheroids with HUVEC and MSC; for IC50: curve of first compound; for viability, T/C: stronger effect = lower value
Outline: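 PDC + HUVEC + MSC complex spheroids; POLQ inhibitors ± partner drugs; top conc. at/near clinical Cmax, else 10 microM (SN-38 1 microM), half-log dilutions; 37 degrees C, 5% CO2.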

[1] = second compound 0.0316 µM, first compound 0.00316 µM
[2] = second compound 0.0316 µM, first compound 0.01 µM
[3] = second compound 0.0316 µM, first compound 0.0316 µM
[4] = second compound 0.0316 µM, first compound 0.1 µM
[5] = second compound 0.1 µM, first compound 0.00316 µM
[6] = second compound 0.1 µM, first compound 0.01 µM
[7] = second compound 0.1 µM, first compound 0.0316 µM
[8] = second compound 0.1 µM, first compound 0.1 µM
[9] = second compound 0.316 µM, first compound 0.00316 µM
[10] = second compound 0.316 µM, first compound 0.01 µM
[11] = second compound 0.316 µM, first compound 0.0316 µM
[12] = second compound 0.316 µM, first compound 0.1 µM
[13] = second compound 1 µM, first compound 0.00316 µM
[14] = second compound 1 µM, first compound 0.01 µM
[15] = second compound 1 µM, first compound 0.0316 µM
[16] = second compound 1 µM, first compound 0.1 µM
[17] = second compound 3.16 µM, first compound 0.00316 µM
[18] = second compound 3.16 µM, first compound 0.01 µM
[19] = second compound 3.16 µM, first compound 0.0316 µM
[20] = second compound 3.16 µM, first compound 0.1 µM
[21] = second compound 10 µM, first compound 0.00316 µM
[22] = second compound 10 µM, first compound 0.01 µM
[23] = second compound 10 µM, first compound 0.0316 µM
[24] = second compound 10 µM, first compound 0.1 µM
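Further: spheroids exposed to compounds for seven days before readout.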

With `CCc1c2c(nc3ccc(O)cc13)-c1cc3c(c(=O)n1C2)COC(=O)[C@]3(O)CC` + COC1C(OC(N)=O)C(O)C(Oc2ccc3c(O)c(NC(=O)c4ccc(O)c(CC=C(C)C)c4)c(=O)oc3c2C)OC1(C)C the IC50 (second compound 0.0316 µM) was greater than 1000 nM, the IC50 (second compound 0.1 µM) was greater than 1000 nM and the IC50 (second compound 0.316 µM) was greater than 1000 nM. It also gave an IC50 (second compound 1 µM) greater than 1000 nM, an IC50 (second compound 3.16 µM) greater than 1000 nM and an IC50 (second compound 10 µM) greater than 1000 nM. The viability, T/C [1] was 91%, the viability, T/C [2] was 109% and the viability, T/C [3] was 89.8%. The viability, T/C [4] was 105%, the viability, T/C (second compound 0.0316 µM, first compound 0.316 µM) was 96.7% and the viability, T/C (second compound 0.0316 µM, first compound 1 µM) was 70.2%. For the same compound, the viability, T/C [5] was 90.1%, the viability, T/C [6] was 99.2% and the viability, T/C [7] was 86.6%. For the same compound, the viability, T/C [8] was 103%, the viability, T/C (second compound 0.1 µM, first compound 0.316 µM) was 108% and the viability, T/C (second compound 0.1 µM, first compound 1 µM) was 79.3%. For the same compound, the viability, T/C [9] was 99.7%, the viability, T/C [10] was 82.9% and the viability, T/C [11] was 85.6%. The viability, T/C [12] was 109%, the viability, T/C (second compound 0.316 µM, first compound 0.316 µM) was 100% and the viability, T/C (second compound 0.316 µM, first compound 1 µM) was 69.7%. The viability, T/C [13] was 93.5%, the viability, T/C [14] was 79.2% and the viability, T/C [15] was 91.1%. The viability, T/C [16] was 94.5%, the viability, T/C (second compound 1 µM, first compound 0.316 µM) was 99.5% and the viability, T/C (second compound 1 µM, first compound 1 µM) was 69.9%. For the same compound, the viability, T/C [17] was 84.4%, the viability, T/C [18] was 90.6% and the viability, T/C [19] was 97.9%. For the same compound, the viability, T/C [20] was 104%, the viability, T/C (second compound 3.16 µM, first compound 0.316 µM) was 96.8% and the viability, T/C (second compound 3.16 µM, first compound 1 µM) was 65.5%. It also gave a viability, T/C [21] of 89.5%, a viability, T/C [22] of 89% and a viability, T/C [23] of 107%. The viability, T/C [24] was 112%, the viability, T/C (second compound 10 µM, first compound 0.316 µM) was 106% and the viability, T/C (second compound 10 µM, first compound 1 µM) was 55.4%.
`CC[C@@]1(O)C(=O)OCc2c1cc1n(c2=O)Cc2cc3c(CN(C)C)c(O)ccc3nc2-1` + Nc1ccc(C#CCN(C(=O)Cc2ncc(C(F)(F)F)cc2C(F)(F)F)c2ccc(F)cc2)nn1 showed an IC50 (second compound 0.0316 µM) greater than 100 nM, an IC50 (second compound 0.1 µM) greater than 100 nM and an IC50 (second compound 0.316 µM) greater than 100 nM. It also gave an IC50 (second compound 1 µM) greater than 100 nM, an IC50 (second compound 3.16 µM) greater than 100 nM and an IC50 (second compound 10 µM) greater than 100 nM. For the same compound, the viability, T/C (second compound 0.0316 µM, first compound 0.000316 µM) was 98.9%, the viability, T/C (second compound 0.0316 µM, first compound 0.001 µM) was 105% and the viability, T/C [1] was 105%. For the same compound, the viability, T/C [2] was 95.1%, the viability, T/C [3] was 84% and the viability, T/C [4] was 91.8%. It also gave a viability, T/C (second compound 0.1 µM, first compound 0.000316 µM) of 105%, a viability, T/C (second compound 0.1 µM, first compound 0.001 µM) of 110% and a viability, T/C [5] of 97.5%. It also gave a viability, T/C [6] of 92.1%, a viability, T/C [7] of 116% and a viability, T/C [8] of 114%. For the same compound, the viability, T/C (second compound 0.316 µM, first compound 0.000316 µM) was 101%, the viability, T/C (second compound 0.316 µM, first compound 0.001 µM) was 93.8% and the viability, T/C [9] was 103%. It also gave a viability, T/C [10] of 107%, a viability, T/C [11] of 116% and a viability, T/C [12] of 69.2%. It also gave a viability, T/C (second compound 1 µM, first compound 0.000316 µM) of 91.2%, a viability, T/C (second compound 1 µM, first compound 0.001 µM) of 97.2% and a viability, T/C [13] of 75.7%. The viability, T/C [14] was 102%, the viability, T/C [15] was 98.7% and the viability, T/C [16] was 74.3%. For the same compound, the viability, T/C (second compound 3.16 µM, first compound 0.000316 µM) was 97.3%, the viability, T/C (second compound 3.16 µM, first compound 0.001 µM) was 101% and the viability, T/C [17] was 82.5%. For the same compound, the viability, T/C [18] was 83.2%, the viability, T/C [19] was 99.5% and the viability, T/C [20] was 88.6%. The viability, T/C (second compound 10 µM, first compound 0.000316 µM) was 97.2%, the viability, T/C (second compound 10 µM, first compound 0.001 µM) was 92.2% and the viability, T/C [21] was 119%. For the same compound, the viability, T/C [22] was 85.7%, the viability, T/C [23] was 94.4% and the viability, T/C [24] was 87.8%.
